Our source for the melting point values is patent US20050004134A1, “Thiazole derivative and pharmaceutical use thereof” (priority 2001, published 2005).

Regarding `COCCNCC(=O)Nc1nc(-c2ccccc2)c(-c2ccc(=O)n(C(C)C)n2)s1.Cl`, the melting point is 252 to 253 °C.
In turn, `CC(C)n1nc(-c2sc(NC(=O)CN3CCN(C)CC3)nc2-c2ccccc2)ccc1=O.Cl.Cl` showed a melting point of 244 to 246 °C.
`CC(C)n1nc(-c2sc(NC(=O)CN3CCOCC3)nc2-c2ccccc2)ccc1=O.Cl` yielded a melting point of 252 to 253 °C.
With `CC(C)n1nc(-c2sc(NC(=O)CN3CCCC3)nc2-c2ccccc2)ccc1=O.Cl` the figure was over 250 °C; with `CC(C)n1nc(-c2sc(NC(=O)CN(C)C)nc2-c2ccccc2)ccc1=O.Cl`, 232 to 234 °C; with `CC(C)n1nc(-c2sc(NC(=O)CNCCCN3CCCC3=O)nc2-c2ccccc2)ccc1=O.Cl`, 207 to 209 °C.
Then `CC(O)CNCC(=O)Nc1nc(-c2ccccc2)c(-c2ccc(=O)n(C(C)C)n2)s1.Cl` (stereo not drawn), with 209 to 211 °C.
`CC(C)n1nc(-c2sc(NC(=O)CNCC(O)c3ccccc3)nc2-c2ccccc2)ccc1=O.Cl` (stereo not drawn) had a melting point of 218 to 220 °C.
`CC(C)n1nc(-c2sc(NC(=O)CNCCCO)nc2-c2ccccc2)ccc1=O.Cl` displayed a melting point of 136 to 142 °C.
With `CC(C)n1nc(-c2sc(NC(=O)CNCCCN3CCOCC3)nc2-c2ccccc2)ccc1=O.Cl.Cl`, the melting point is 211 to 213 °C.
`CC(C)n1nc(-c2sc(NC(=O)CNCCN(C)C)nc2-c2ccccc2)ccc1=O.Cl.Cl` yielded a melting point of 136 to 142 °C.
Turning to `CC(C)n1nc(-c2sc(NC(=O)CCN3CCCC3)nc2-c2ccccc2)ccc1=O.Cl`, the melting point lay in the range of 224 to 225 °C.
Consider `CCN(CC)CCNCC(=O)Nc1nc(-c2ccccc2)c(-c2ccc(=O)n(C(C)C)n2)s1.Cl.Cl`, for which the melting point was in the range of 157 to 159 °C.
Then `CC(C)n1nc(-c2sc(NC(=O)CNCCN3CCOCC3)nc2-c2ccccc2)ccc1=O.Cl.Cl`, with 250 to 252 °C; and `CC(C)NCC(=O)Nc1nc(-c2ccccc2)c(-c2ccc(=O)n(C(C)C)n2)s1.Cl`, with over 250 °C.
With `CC(C)n1nc(-c2sc(NC(=O)CNC3CC3)nc2-c2ccccc2)ccc1=O.Cl` the figure was 123 to 125 °C; with `COCCCNCC(=O)Nc1nc(-c2ccccc2)c(-c2ccc(=O)n(C(C)C)n2)s1.Cl`, over 250 °C.
Regarding `CCOCCNCC(=O)Nc1nc(-c2ccccc2)c(-c2ccc(=O)n(C(C)C)n2)s1.Cl`, the melting point was 252 to 253 °C.
Take `CC(C)n1nc(-c2sc(NC(=O)CNCCN3CCCCC3)nc2-c2ccccc2)ccc1=O.Cl.Cl`: the melting point is over 250 °C.
On to `CC(C)n1nc(-c2sc(NCCN3CCOCC3)nc2-c2ccccc2)ccc1=O.Cl.Cl`, for which the melting point was in the range of 140 to 143 °C.
As to `CC(C)n1nc(-c2sc(NCCCN3CCOCC3)nc2-c2ccccc2)ccc1=O.Cl.Cl`, the melting point lay within 150 to 153 °C.
Then `Br.CNc1nc(-c2ccccc2)c(-c2ccc(=O)n(C(C)C)n2)s1`, with 226 to 228 °C.
Consider `Br.CC(C)n1nc(-c2sc(Nc3ccccc3)nc2-c2ccccc2)ccc1=O`, for which the melting point lay in the range of 127 to 129 °C.
Turning to `Br.CCCCNc1nc(-c2ccccc2)c(-c2ccc(=O)n(C(C)C)n2)s1`, the melting point is 204 to 205 °C.
In turn, `CC(C)n1nc(-c2sc(NC(=O)Oc3ccccc3)nc2-c2ccccc2)ccc1=O` showed a melting point of 205 to 207 °C.
As to `CC(C)n1nc(-c2sc(N)nc2-c2ccccc2)ccc1=O` [Example 1, 6-(2-amino-4-phenyl-1,3-thiazol-5-yl)-2-isopropyl-3(2H)-pyridazinone], the melting point was over 250 °C.
For `CC(C)n1nc(-c2sc(NC(=O)c3ccccc3)nc2-c2ccccc2)ccc1=O` [Example 2, N-[5-(1-isopropyl-6-oxo-1,6-dihydro-3-pyridazinyl)-4-phenyl-1,3-thiazol-2-yl]-benzamide], the melting point fell in the range of 126 to 129 °C.

As usually defined, the melting point is the temperature, or range, at which the solid turns liquid.
